The first assay has as its target T1, human 17β-hydroxy steroid dehydrogenase type 1 (Homo sapiens, UniProt P14061).
T1 construct: made in house; host or cells: E. coli (suspension of bacterial pellets, enzyme not purified)
T1 sequence (P14061 1-328): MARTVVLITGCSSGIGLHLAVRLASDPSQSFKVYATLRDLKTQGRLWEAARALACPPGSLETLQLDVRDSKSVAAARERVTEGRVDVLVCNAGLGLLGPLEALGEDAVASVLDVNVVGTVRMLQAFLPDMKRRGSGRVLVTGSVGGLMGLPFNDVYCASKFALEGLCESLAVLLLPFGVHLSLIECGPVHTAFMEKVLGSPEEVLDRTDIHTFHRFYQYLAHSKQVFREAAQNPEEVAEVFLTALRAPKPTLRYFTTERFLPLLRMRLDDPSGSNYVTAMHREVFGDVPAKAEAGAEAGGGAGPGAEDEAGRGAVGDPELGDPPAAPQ
As to the kind of experiment: Inhibition of the activity of human 17β-hydroxy steroid dehydrogenase type 1 (3H-labeled substrate conversion, HPLC). It counts as biochemical.
Conditions: not given
From the text:
The test method is well described in the literature [Adamski, J., Sierralta, W. D., Jungblut, P. W., Acta Endocrinol (Copenh.) 121(2) (1989), 161-7] and is depicted below.
Human 17β-hydroxy steroid dehydrogenases (17β-HSDs) are over-expressed in E. coli bacteria as His-Tag proteins or as GST-fusion proteins. The suspensions of the bacterial pellets in isotonic common salt solution are used for the determination of enzyme activities of the 17β-HSDs or for the study of their influence by potential inhibitors (estrogen derivatives).
The measurements are made in double determination and, if necessary, at various concentrations of potential inhibitors (e.g., in determining the IC50 values). In addition to the target enzyme 17β-HSD1, other steroid-metabolizing enzymes are included in the test to study cross reactivities of estrogen derivatives.
The incubation of the samples is carried out at 37° C. in a water bath while being shaken, such that in the control (without substances to be tested), a conversion of about 30% is achieved.
The separation of radiolabeled substrate and product is then carried out, after extraction with 1 ml of reversed phase-(RP-18)-cartridges, by means of HPLC on an RP18 column with acetonitrile:water 1:1 (v/v) as a mobile phase. The radioactivity is detected with the aid of a flow-scintillation counter.
The evaluation of the substrate conversion with and without substances to be tested is performed by the integration of the substrate and product peaks. The conversion of the control normalized to 100% conversion.
By IC50 is commonly meant the concentration needed to halve the response being measured. Consider `C[C@]12CC[C@@H]3c4cc(Cl)c(O)cc4CC[C@H]3[C@@H]1C[C@H](F)C2=O` [Compound 4, 2-Chloro-16β-fluoro-3-hydroxy-estra-1,3,5(10)-trien-17-one], for which the IC50 turned out to be 35 nM. Take `C[C@]12CC[C@@H]3c4cc(CCc5ccccc5)c(O)cc4CC[C@H]3[C@@H]1CCC2=O` [Compound 21, 3-Hydroxy-2-(2′-phenyl-ethyl)estra-1,3,5(10)-trien-17-one]: the IC50 was determined as 47 nM. Take `C[C@]12CC[C@@H]3c4cc(Cl)c(O)cc4CC[C@H]3[C@@H]1C[C@@H](F)C2=O` [Compound 3, 2-Chloro-16α-fluoro-3-hydroxy-estra-1,3,5(10)-trien-17-one]: the IC50 came to 101 nM.

The same assay, now with this note: enzyme over-expressed in E. coli, bacterial suspension, 37° C.; read-out: 17βHSD1 IC50.
Regarding `C[C@]12CC[C@@H]3c4cc(C#N)c(O)cc4CC[C@H]3[C@@H]1CCC2=O` [Compound 12, 2-Cyano-3-hydroxy-estra-1,3,5(10)-trien-17-one], the IC50 amounted to 148 nM. As for `CC[C@]12CC[C@@H]3c4cc(Cl)c(O)cc4CC[C@H]3[C@@H]1CCC2=O` [Compound 1, 2-Chloro-3-hydroxy-18a-homoestra-1,3,5(10)-trien-17-one], the IC50 is 121 nM.

Turning to `C[C@]12CC[C@@H]3c4cc(Cl)c(O)cc4CC[C@H]3[C@@H]1CCC2=O` [Compound 11, 2-Chloro-3-hydroxy-estra-1,3,5(10)-trien-17-one], the IC50 turned out to be 140 nM. In the case of `CCc1cc2c(cc1O)CC[C@@H]1[C@@H]2CC[C@]2(C)C(=O)CC[C@@H]12` [Compound 23, 2-Ethyl-3-hydroxy-estra-1,3,5(10)-trien-17-one], the IC50 was 89 nM. On the same count and under the same terms, to `C[C@]12CC[C@@H]3c4cc(C#Cc5ccccc5)c(O)cc4CC[C@H]3[C@@H]1CCC2=O` [Compound 19, 3-Hydroxy-2-phenylethinyl-estra-1,3,5(10)-trien-17-one] belongs 56 nM.
